# According to ChEMBL document CHEMBL5375962 (J Med Chem, 2023):
# Active and inactive are the calls of the source. The rule behind the calls is not given here.
# How the values were obtained:
# [1] = Clearance in dog hepatocytes measured per 10^6 cells; format: ADME, cell-based, Canis lupus familiaris, Hepatocyte; settings: read-out: CLH
# [2] = Cmax in dog at 1 mg/kg, iv; format: ADME, organism-based, Canis lupus familiaris; set-up: dose 1 mg/kg, route iv; settings: in vivo
# [3] = Inhibition of mouse KHK-A
# [4] = AUC in rat at 1 mg/kg, iv measured after 12 hrs; format: ADME, organism-based; set-up: time 12 hrs, dose 1 mg/kg, route iv; settings: in vivo
# [5] = Inhibition of mouse KHK-C
# [6] = Thermodynamic solubility of the compound […] at pH 7.4; format: physicochemical; settings: read-out: Therm_solubility
# [7] = Clearance in rat hepatocytes measured per 10^6 cells; format: ADME, cell-based, Hepatocyte; settings: read-out: CLH
# [8] = Volume of distribution in rat at 1 mg/kg, iv measured after 12 hrs; format: ADME, organism-based; settings: in vivo
# [9] = Permeability in MDCK cells assessed as drug transport measured over 1 hr in presence of P-gp; format: ADME, cell-based, Canis lupus familiaris; settings: dog
# [10] = AUC in dog at 1 mg/kg, iv; format: ADME, organism-based, Canis lupus familiaris; set-up: dose 1 mg/kg, route iv; settings: in vivo
# [11] = tested on: Hepatocyte; assay: Cytotoxicity against rat Primary hepatocyte; format: toxicity, cell-based; settings: hepatocytes
# [12] = Half life in rat at 1 mg/kg, iv measured after 12 hrs; format: ADME, organism-based; settings: in vivo
# [13] = Clearance in human hepatocytes measured per 10^6 cells; format: ADME, cell-based, Hepatocyte; settings: read-out: CLH
# [14] = Metabolic stability in mouse liver microsomes assessed as compound degradation measured after 30 mins; format: ADME, Microsome; settings: read-out: Drug degradation
# [15] = Volume of distribution in dog at 1 mg/kg, iv; format: ADME, organism-based, Canis lupus familiaris; settings: in vivo
# [16] = target: T1, Ketohexokinase (Homo sapiens, UniProt P50053); assay: Inhibition of KHK in human HepG2 cells incubated for 3 hrs by Rapidfire MS analysis; format: cell-based
# T1 sequence (P50053 whole entry): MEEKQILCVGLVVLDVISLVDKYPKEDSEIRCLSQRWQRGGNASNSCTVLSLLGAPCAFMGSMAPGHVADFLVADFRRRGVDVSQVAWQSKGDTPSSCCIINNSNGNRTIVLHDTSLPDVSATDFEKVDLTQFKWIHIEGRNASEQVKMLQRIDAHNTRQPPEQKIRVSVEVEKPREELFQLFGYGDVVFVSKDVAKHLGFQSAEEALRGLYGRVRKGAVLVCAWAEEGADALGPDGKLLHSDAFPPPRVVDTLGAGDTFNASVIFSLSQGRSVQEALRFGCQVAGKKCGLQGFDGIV
# [17] = Half life in dog at 1 mg/kg, iv; format: ADME, organism-based, Canis lupus familiaris; settings: in vivo
# [18] = Metabolic stability in human liver microsomes assessed as compound degradation measured after 30 mins; format: ADME, Microsome; settings: read-out: Drug degradation
# [19] = Cmax in rat at 1 mg/kg, iv measured after 12 hrs; format: ADME, organism-based; set-up: dose 1 mg/kg, time 12 hrs, route iv; settings: in vivo
# [20] = Clearance in rat at 1 mg/kg, iv measured after 12 hrs; format: ADME, organism-based; settings: in vivo
# [21] = Metabolic stability in dog liver microsomes assessed as compound degradation measured after 30 mins; format: ADME, Canis lupus familiaris, Microsome; settings: read-out: Drug degradation
# [22] = Metabolic stability in rat liver microsomes assessed as compound degradation measured after 30 mins; format: ADME, Microsome; settings: read-out: Drug degradation
# [23] = Clearance in dog at 1 mg/kg, iv; format: ADME, organism-based, Canis lupus familiaris; settings: in vivo
# [24] = tested on: Mus musculus; assay: Reduction in fructose level in 5 hrs fasted C57B6 mouse assessed as maximum effect at 100 mg/kg administered via oral gavage measured upto 180 mins by oral fructose challenge assay; format: functional, organism-based
# [25] = target: T1, Ketohexokinase; assay: Inhibition of human KHK-A preincubated for 15 mins followed by substrate addition and measured after 20 mins in presence of ATP by Rapidfire MS analysis
# [26] = target: T1, Ketohexokinase; assay: Inhibition of human KHK-C preincubated for 15 mins followed by substrate addition and measured after 20 mins in presence of ATP by Rapidfire MS analysis
# [27] = Half life in rat at 3 mg/kg, po measured after 12 hrs; format: ADME, organism-based; settings: in vivo
# [28] = Tmax in rat at 3 mg/kg, po measured after 12 hrs; format: ADME, organism-based; settings: in vivo
# [29] = Oral bioavailability in rat at 3 mg/kg measured after 12 hrs; format: ADME, organism-based; settings: in vivo
# [30] = AUC in rat at 3 mg/kg, po measured after 12 hrs; format: ADME, organism-based; set-up: dose 3 mg/kg, time 12 hrs, route po; settings: in vivo
# [31] = Cmax in rat at 3 mg/kg, po measured after 12 hrs; format: ADME, organism-based; set-up: dose 3 mg/kg, time 12 hrs, route po; settings: in vivo
# [32] = Tmax in dog at 3 mg/kg, po; format: ADME, organism-based, Canis lupus familiaris; settings: in vivo
# [33] = Half life in dog at 3 mg/kg, po; format: ADME, organism-based, Canis lupus familiaris; settings: in vivo
# [34] = AUC in dog at 3 mg/kg, po; format: ADME, organism-based, Canis lupus familiaris; set-up: dose 3 mg/kg, route po; settings: in vivo
# [35] = Oral bioavailability in dog at 3 mg/kg; format: ADME, organism-based, Canis lupus familiaris; settings: in vivo
# [36] = Cmax in dog at 3 mg/kg, po; format: ADME, organism-based, Canis lupus familiaris; set-up: dose 3 mg/kg, route po; settings: in vivo
compound,measurement,setting,value
OC[C@H]1CCN1c1nc(-c2cnn(C3CNC3)c2)cc(C(F)(F)F)n1,hepatocyte CLint,[1],2 µL/min/1e6 cells
same,Cmax,[2],2730 nM
same,IC50,[3],108 nM
same,AUC at 12 h,[4],0.531 µM·h
same,IC50,[5],32 nM
same,solubility thermodynamic,[6],690 µg/mL
same,hepatocyte CLint,[7],10 µL/min/1e6 cells
same,Vd,[8],3.4 L/kg
same,Drug transport,[9],2.2%
same,AUC,[10],1.31 µM·h
same,LC20,[11],> 50000 nM
same,half-life,[12],0.7 h
same,hepatocyte CLint,[13],< 1.8 µL/min/1e6 cells
same,metabolised at 0.5 h,[14],20%
same,Vd,[15],5.2 L/kg
same,IC50,[16],40 nM
same,half-life,[17],3.7 h
same,metabolised at 0.5 h,[18],4%
same,Cmax,[19],1050 nM
same,clearance,[20],90 mL/min/kg
same,metabolised at 0.5 h,[21],0%
same,metabolised at 0.5 h,[22],0%
same,clearance,[23],37 mL/min/kg
C[C@H]1CCN1c1nc(N2C[C@@H]3[C@@H](CC(=O)O)[C@@H]3C2)cc(C(F)(F)F)n1 [PF-06835919],IC50,[3],30 nM
same,IC50,[5],20 nM
same,Activity,[24],Active
C[C@H]1CCN1c1nc(-c2cnn(CC(=O)N3C[C@H](O)[C@@H](O)C3)c2)cc(C(F)(F)F)c1C#N,hepatocyte CLint,[1],< 1.8 µL/min/1e6 cells
same,Cmax,[2],2650 nM
same,IC50,[3],5 nM
same,AUC at 12 h,[4],0.381 µM·h
same,IC50,[25],7 nM
same,IC50,[5],12 nM
same,solubility thermodynamic,[6],21 µg/mL
same,hepatocyte CLint,[7],2.3 µL/min/1e6 cells
same,Vd,[8],4.6 L/kg
same,Drug transport,[9],0.5%
same,AUC,[10],2.5 µM·h
same,LC20,[11],> 50000 nM
same,half-life,[12],0.5 h
same,hepatocyte CLint,[13],3.6 µL/min/1e6 cells
same,metabolised at 0.5 h,[14],20%
same,Vd,[15],2.7 L/kg
same,IC50,[16],76 nM
same,half-life,[17],2.1 h
same,metabolised at 0.5 h,[18],24%
same,Cmax,[19],1280 nM
same,clearance,[20],101 mL/min/kg
same,metabolised at 0.5 h,[21],9%
same,metabolised at 0.5 h,[22],1%
same,clearance,[23],16 mL/min/kg
C[C@H]1CCN1c1nc(-c2cnn(CC(=O)N(CCO)CCO)c2)cc(C(F)(F)F)c1C#N,hepatocyte CLint,[1],2.6 µL/min/1e6 cells
same,IC50,[3],16 nM
same,AUC at 12 h,[4],1.59 µM·h
same,IC50,[5],35 nM
same,solubility thermodynamic,[6],28 µg/mL
same,hepatocyte CLint,[7],6.1 µL/min/1e6 cells
same,Vd,[8],4.8 L/kg
same,Drug transport,[9],2%
same,LC20,[11],> 50000 nM
same,half-life,[12],2.4 h
same,hepatocyte CLint,[13],43 µL/min/1e6 cells
same,metabolised at 0.5 h,[14],30%
same,IC50,[16],102 nM
same,metabolised at 0.5 h,[18],27%
same,Cmax,[19],2940 nM
same,clearance,[20],23 mL/min/kg
same,metabolised at 0.5 h,[21],16%
same,metabolised at 0.5 h,[22],9%
C[C@H]1CCN1c1nc(-c2cnn(CC(=O)N3C[C@@H](O)[C@H](O)C3)c2)cc(C(F)(F)F)c1C#N,hepatocyte CLint,[1],1.9 µL/min/1e6 cells
same,IC50,[3],7 nM
same,AUC at 12 h,[4],0.53 µM·h
same,IC50,[5],8 nM
same,solubility thermodynamic,[6],19 µg/mL
same,hepatocyte CLint,[7],2.2 µL/min/1e6 cells
same,Vd,[8],3.3 L/kg
same,Drug transport,[9],0.5%
same,LC20,[11],> 50000 nM
same,half-life,[12],0.6 h
same,hepatocyte CLint,[13],6.1 µL/min/1e6 cells
same,metabolised at 0.5 h,[14],13%
same,IC50,[16],109 nM
same,metabolised at 0.5 h,[18],52%
same,Cmax,[19],1830 nM
same,clearance,[20],71 mL/min/kg
same,metabolised at 0.5 h,[21],2%
same,metabolised at 0.5 h,[22],0%
C[C@H]1CCN1c1nc(-c2cnn(C3CCNCC3)c2)cc(C(F)(F)F)c1C#N,hepatocyte CLint,[1],4.9 µL/min/1e6 cells
same,IC50,[3],2 nM
same,IC50,[25],4 nM
same,IC50,[5],6 nM
same,solubility thermodynamic,[6],39 µg/mL
same,hepatocyte CLint,[7],3.7 µL/min/1e6 cells
same,IC50,[26],4 nM
same,Drug transport,[9],8.7%
same,LC20,[11],< 9000 nM
same,hepatocyte CLint,[13],3.5 µL/min/1e6 cells
same,metabolised at 0.5 h,[14],24%
same,IC50,[16],5 nM
same,metabolised at 0.5 h,[18],0%
same,metabolised at 0.5 h,[21],11%
same,metabolised at 0.5 h,[22],2%
C[C@H]1CCN1c1nc(-c2cnn(CC(=O)NCCO)c2)cc(C(F)(F)F)c1C#N,hepatocyte CLint,[1],3.2 µL/min/1e6 cells
same,Cmax,[2],2340 nM
same,IC50,[3],12 nM
same,AUC at 12 h,[4],2.62 µM·h
same,IC50,[5],28 nM
same,solubility thermodynamic,[6],39 µg/mL
same,hepatocyte CLint,[7],12 µL/min/1e6 cells
same,Vd,[8],2.9 L/kg
same,half-life,[27],3 h
same,Drug transport,[9],15%
same,AUC,[10],9.04 µM·h
same,LC20,[11],> 50000 nM
same,half-life,[12],2.2 h
same,Tmax,[28],1.2 h
same,hepatocyte CLint,[13],2.8 µL/min/1e6 cells
same,metabolised at 0.5 h,[14],19%
same,bioavailability,[29],62%
same,Vd,[15],1.4 L/kg
same,IC50,[16],84 nM
same,half-life,[17],5.2 h
same,AUC at 12 h,[30],5.09 µM·h
same,Cmax,[31],827 nM
same,metabolised at 0.5 h,[18],4%
same,Cmax,[19],1910 nM
same,clearance,[20],16 mL/min/kg
same,metabolised at 0.5 h,[21],7%
same,metabolised at 0.5 h,[22],21%
same,clearance,[23],5 mL/min/kg
OC[C@H]1CCN1c1nc(-c2cnn(C3CCNCC3)c2)cc(C(F)(F)F)n1,hepatocyte CLint,[1],3.4 µL/min/1e6 cells
same,Cmax,[2],2940 nM
same,IC50,[3],56 nM
same,AUC at 12 h,[4],0.69 µM·h
same,Tmax,[32],2.3 h
same,IC50,[5],177 nM
same,solubility thermodynamic,[6],750 µg/mL
same,hepatocyte CLint,[7],< 1.8 µL/min/1e6 cells
same,Vd,[8],17 L/kg
same,half-life,[33],10 h
same,half-life,[27],5 h
same,Drug transport,[9],3.2%
same,AUC,[10],1.97 µM·h
same,AUC,[34],10.3 µM·h
same,LC20,[11],> 50000 nM
same,half-life,[12],4.3 h
same,Tmax,[28],1.7 h
same,hepatocyte CLint,[13],1.8 µL/min/1e6 cells
same,metabolised at 0.5 h,[14],13%
same,bioavailability,[29],95%
same,Vd,[15],8.4 L/kg
same,half-life,[17],5 h
same,bioavailability,[35],100%
same,Cmax,[36],609 nM
same,AUC at 12 h,[30],1.95 µM·h
same,Cmax,[31],424 nM
same,metabolised at 0.5 h,[18],3%
same,Cmax,[19],310 nM
same,clearance,[20],56 mL/min/kg
same,metabolised at 0.5 h,[21],7%
same,metabolised at 0.5 h,[22],0%
same,clearance,[23],23 mL/min/kg
